Measurements as given in US4594421A, “Imidazopyridine compounds” (priority 1984, dated 1986).
Read-outs that look alike come from different tables or passages of the source.

Assays:
[1] = tested on: phrenic-diaphragm preparation; assay: Neuromuscular blocking activity in vitro, phrenic-diaphragm preparation; design: species or system male Sprague-Dawley rats; conditions: rat phrenic-diaphragm, 37° C., cumulative concentrations, read-out: EC50 (effective concentration able to reduce the muscular contraction of 50%)
Experimental: (§1) The neuromuscular blocking activity has been evaluated:
in vitro, using the phrenic-diaphragm preparation according to the method described by Bulbring E. (Brit. J. Pharmac. Chemother. 1, 38, 1946). The preparation, taken from male Sprague-Dawley rats weighing 200-250 g, was placed into a bath for isolated organs, thermostatically kept at 37° C. and containing a nutritional liquid oxygenated with […] carboxygen. The phrenic nerve was stimulated by means of square wave impulses (12 per min., duration 0.5 msec., overmaximal voltage). […] The dose-effect curve, determined for each of them, allowed to calculate the EC50 or effective concentration able to reduce the muscular contraction of 50% (Table 1);

[2] = tested on: sciatic-gastrocnemious preparation; assay: Neuromuscular blocking activity in vivo, sciatic-gastrocnemious preparation; design: species or system male Sprague-Dawley rats; conditions: for ED50: iv, read-out: ED50 (effective dose causing the 50% reduction of muscular contraction)
Experimental: as §1
(§2) in vivo, using the sciatic-gastrocnemious preparation, substantially following the method described by Hughes R. (Br. J. Anaesth. 44, 27, 1972). Male Sprague-Dawley rats weighing 200-250 g, anaesthetized (urethane 1,2 g/kg i.p.) and submitted to forced ventilation, were treated. The sciatic nerve was stimulated at a rate of 6 impulses per min. by means of square waves and overmaximal voltage with a duration of 0.5 msec. The left carotid artery was incannulated for the continuous registration of arterial blood pressure and heart rate.
(§3) The compounds to be tested were administered by i.v. route at increasing doses, given at intervals of at least 30 min. from one to another and, in any case, after the effect of previous administration had completely exhausted.
(§4) In addition, the time of latence (the interval between the administration and the maximal effect) and that of complete recovery have been determined.

[3] = tested on: arterial blood pressure and heart rate; assay: Cardiovascular effects (arterial blood pressure and heart rate) in vivo; design: species or system male Sprague-Dawley rats; conditions: rat, i.v.; for Arterial blood pressure Δ % / Heart rate Δ %: at ED50 on muscular contraction
Experimental: as §2, §3, §4

[4] = Acute toxicity (LD50) in rat; design: species or system male Sprague-Dawley rats; conditions: in vivo, iv, Litchfield and Wilcoxon
Experimental: The LD50 were then calculated according to the method of Litchfield J. T. and Wilcoxon F. J. (J. Pharmac. Exp. Ther., 95, 99, 1949).

[5] = tested on: skeletal neuromuscular junction; conditions: known compound of the commerce; cited from earlier work
[6] = rat, i.v., anaesthetized (urethane)

Compound | EC50 [1] | ED50 [2, 6] | Latence (interval between the administration and the maximal effect) ([2]; rat, i.v.) | Recovery (time of complete recovery) ([2]; rat, i.v.) | Arterial blood pressure Δ % [3] | Heart rate Δ % [3] | LD50 [4] | ED50 ([2]; Rattus norvegicus) | Arterial blood pressure Δ % at minimal active dose ([3]; at minimal active dose on muscular contraction) | activity in vivo ([2]; rat, i.v.) | known activity of the standard [5]
Fc1ccc(-c2c[n+]3ccccc3n2CCCCCCn2c(-c3ccc(F)cc3)c[n+]3ccccc23)cc1 [Example 1, 1,1'-(1,6-Hexamethylene)bis[2-(4'-fluoro)phenyl]imidazo[1,2-a]pyridinium perchlorate] | 15 µM | 3 µg/kg | 2.2 min | 7.9 min | -37% | +28% | 3.9 µmol/kg | – | – | – | –
c1ccc(-c2c[n+]3ccccc3n2CCCCCCCCn2c(-c3ccccc3)c[n+]3ccccc23)cc1 [Example 2, 1,1'-(1,8-Octamethylene)bis-2-phenylimidazo[1,2-a]piridinium perchlorate] | 11.9 µM | 1.9 µg/kg | 2.2 min | 9.2 min | -45% | +22% | 2.7 µmol/kg | – | – | – | –
Cc1c(-c2ccccc2)n(CCCCCCCCn2c(-c3ccccc3)c(C)[n+]3ccccc23)c2cccc[n+]12 [Example 3, 1,1'-(1,8-Octamethylene)bis(2-phenyl-3-methyl)imiadazo[1,2-a]pyridinium perchlorate] | 14.3 µM | 1.6 µg/kg | 1.2 min | 5.0 min | -28% | +40% | 2 µmol/kg | – | – | – | –
Cc1c(-c2ccccc2)n(CCCCn2c(-c3ccccc3)c(C)[n+]3ccccc23)c2cccc[n+]12 [Example 4, 1,1'-(1,4-Tetramethylene)bis(2-phenyl-3-methyl)imidazo[1,2-a]pyridinium perchlorate] | 28.7 µM | 5 µg/kg | 1.3 min | 6.2 min | -28% | +1% | 4.3 µmol/kg | – | – | – | –
COc1ccc(-c2c[n+]3ccccc3n2CCCCCCn2c(-c3ccc(OC)cc3)c[n+]3ccccc23)cc1 [Example 5, 1,1'-(1,6-Hexamethylene)bis[2-(4'-methoxy)phenyl]imidazo[1,2-a]pyridinium bromide monohydrate] | 14.7 µM | 1.9 µg/kg | 1.5 min | 6.4 min | -39% | +26% | 2.6 µmol/kg | – | – | – | –
Brc1ccc(-c2c[n+]3ccccc3n2CCCCCCn2c(-c3ccc(Br)cc3)c[n+]3ccccc23)cc1 [Example 7, 1,1'-(1,6-Hexamethylene)bis[2-(4-bromophenyl)]imidazo[1,2-a]pyridinium bromide] | 15.4 µM | 3 µg/kg | 1.5 min | 9.8 min | -50% | -8% | 6 µmol/kg | – | – | – | –
Cc1c(-c2ccccc2)n(CCCCCCn2c(-c3ccccc3)c(C)[n+]3ccccc23)c2cccc[n+]12 [Example 8, 1,1'-(1,6-Hexamethylene)bis(2-phenyl-3-methyl)imidazo[1,2-a]pyridinium perchlorate] | 13.6 µM | 1.3 µg/kg | 2.1 min | 7.7 min | -40% | +68% | 2 µmol/kg | – | – | – | –
c1ccc(-c2c[n+]3ccccc3n2CCCCn2c(-c3ccccc3)c[n+]3ccccc23)cc1 [Example 9, 1,1'-(1,4-Tetramethylene)bis-2-phenylimidazo[1,2-a]pyridinium perchlorate] | 28.9 µM | 3.3 µg/kg | 2.1 min | 7.0 min | -31% | +25% | 3.2 µmol/kg | – | – | – | –
c1ccc(-c2c[n+]3ccccc3n2CCn2c(-c3ccccc3)c[n+]3ccccc23)cc1 [Example 10, 1,1'-(1,2-Ethylene)bis-2-phenylimidazo[1,2-a]pyridinium perchlorate] | 31.4 µM | 4 µg/kg | 2.8 min | 14.0 min | -30% | +28% | 8.8 µmol/kg | – | – | – | –
c1ccc(-c2c[n+]3ccccc3n2CCCCCCn2c(-c3ccccc3)c[n+]3ccccc23)cc1 [Example 11, 1,1'-(1,6-Hexamethylene)bis-2-phenylimidazo[1,2-a]pyridinium perchlorate] | 12.9 µM | 2.1 µg/kg | 2.3 min | 8.8 min | -40% | +42% | 3.1 µmol/kg | – | – | – | –
Cc1c(-c2ccccc2)n(CCn2c(-c3ccccc3)c(C)[n+]3ccccc23)c2cccc[n+]12 [Example 12, 1,1'-(1,2-Ethylene)bis(2-phenyl-3-methyl)imidazo[1,2-a]pyridinium perchlorate] | 115 µM | – | 2.6 min | 12.2 min | -5% | +6% | 9.7 µmol/kg | 5.6 µg/kg | -24% | – | –
Cc1c(-c2ccccc2)n(/N=N/n2c(-c3ccccc3)c(C)[n+]3ccccc23)c2cccc[n+]12 [Fazadinium bromide, 1,1-azabis 3-methyl-2-phenylimidazo 1,2-a pyridinium bromide, reference compound] | 13.9 µM | 1 µg/kg | 1.5 min | 6.6 min | -16% | +30% | 1.5 µmol/kg | – | – | active | competitive skeletal muscle paralysing activity
